Results taken from ChEMBL document CHEMBL1275577, “Study of the in vitro activities of rifaximin and comparator agents against 536 anaerobic intestinal bacteria from the perspective of potential utility in pathology involving bowel flora” (Antimicrob Agents Chemother, 2009).
≈ marks a conversion by molar mass, not a printed value.

What was measured:
Type in all cases: functional
[1] = tested on: Parabacteroides distasonis; experiment: Antimicrobial activity against Parabacteroides distasonis by Wadsworth agar dilution method
Bacteroides caccae = experiment: Antimicrobial activity against Bacteroides caccae by Wadsworth agar dilution method
[2] = tested on: Desulfovibrio desulfuricans; experiment: Antimicrobial activity against Desulfovibrio desulfuricans by Wadsworth agar dilution method
[3] = tested on: Desulfovibrio fairfieldensis; experiment: Antimicrobial activity against Desulfovibrio fairfieldensis by Wadsworth agar dilution method
Fusobacterium nucleatum = experiment: Antimicrobial activity against Fusobacterium nucleatum by Wadsworth agar dilution method
Porphyromonas uenonis = experiment: Antimicrobial activity against Porphyromonas uenonis by Wadsworth agar dilution method
Clostridium hathewayi = experiment: Antimicrobial activity against Clostridium hathewayi by Wadsworth agar dilution method; conditions: Hungatella hathewayi
Flavonifractor plautii = experiment: Antimicrobial activity against Clostridium orbiscindens by Wadsworth agar dilution method
Clostridium perfringens = experiment: Antimicrobial activity against Clostridium perfringens by Wadsworth agar dilution method
Clostridium fallax = experiment: Antimicrobial activity against Clostridium fallax by Wadsworth agar dilution method
Clostridium symbiosum = experiment: Antimicrobial activity against Clostridium symbiosum by Wadsworth agar dilution method
Bifidobacterium bifidum = experiment: Antimicrobial activity against Bifidobacterium bifidum by Wadsworth agar dilution method
Bifidobacterium breve = experiment: Antimicrobial activity against Bifidobacterium breve by Wadsworth agar dilution method
[4] = Antimicrobial activity against Bifidobacterium pseudocatenulatum by Wadsworth agar dilution method
[5] = tested on: Coprobacillus cateniformis; experiment: Antimicrobial activity against Coprobacillus cateniformis by Wadsworth agar dilution method
Peptoniphilus harei = experiment: Antimicrobial activity against Peptoniphilus harei by Wadsworth agar dilution method
Ruminococcus gnavus = experiment: Antimicrobial activity against Ruminococcus gnavus by Wadsworth agar dilution method; conditions: Mediterraneibacter gnavus
Ruminococcus lactaris = experiment: Antimicrobial activity against Ruminococcus lactaris by Wadsworth agar dilution method
Blautia luti = experiment: Antimicrobial activity against Ruminococcus luti by Wadsworth agar dilution method

For `CN[C@H](CC(C)C)C(=O)N[C@H]1C(=O)N[C@@H](CC(N)=O)C(=O)N[C@H]2C(=O)N[C@H]3C(=O)N[C@H](C(=O)N[C@H](C(=O)O)c4cc(O)cc(O)c4-c4cc3ccc4O)[C@H](O)c3ccc(c(Cl)c3)Oc3cc2cc(c3O[C@@H]2O[C@H](CO)[C@@H](O)[C@H](O)[C@H]2O[C@H]2C[C@](C)(N)[C@H](O)[C@H](C)O2)Oc2ccc(cc2Cl)[C@H]1O` [VANCOMYCIN], the MIC50 [1] was 128 µg/mL (≈ 88.3 µM), the MIC90 [1] was 128 µg/mL (≈ 88.3 µM) and the MIC50 (Bacteroides caccae) was 32 µg/mL (≈ 22.1 µM). The MIC90 (Bacteroides caccae) was 64 µg/mL (≈ 44.2 µM), the MIC50 [2] was > 1020 µg/mL and the MIC90 [2] was > 1020 µg/mL. The MIC50 [3] was > 1020 µg/mL, the MIC90 [3] was > 1020 µg/mL and the MIC50 (Fusobacterium nucleatum) was 256 µg/mL (≈ 177 µM). It also gave an MIC90 (Fusobacterium nucleatum) of 512 µg/mL (≈ 353 µM), an MIC50 (Porphyromonas uenonis) of 4 µg/mL (≈ 2.76 µM) and an MIC90 (Porphyromonas uenonis) of 8 µg/mL (≈ 5.52 µM). It also gave an MIC50 (Clostridium hathewayi) of 1 µg/mL (≈ 0.69 µM), an MIC90 (Clostridium hathewayi) of 1 µg/mL (≈ 0.69 µM) and an MIC50 (Flavonifractor plautii) of 8 µg/mL (≈ 5.52 µM). It also gave an MIC90 (Flavonifractor plautii) of 8 µg/mL (≈ 5.52 µM), an MIC50 (Clostridium perfringens) of 1 µg/mL (≈ 0.69 µM) and an MIC90 (Clostridium perfringens) of 1 µg/mL (≈ 0.69 µM). It also gave an MIC50 (Clostridium fallax) of 1 µg/mL (≈ 0.69 µM), an MIC90 (Clostridium fallax) of 4 µg/mL (≈ 2.76 µM) and an MIC50 (Clostridium symbiosum) of 1 µg/mL (≈ 0.69 µM). The MIC90 (Clostridium symbiosum) was 4 µg/mL (≈ 2.76 µM), the MIC50 (Bifidobacterium bifidum) was 1 µg/mL (≈ 0.69 µM) and the MIC90 (Bifidobacterium bifidum) was 64 µg/mL (≈ 44.2 µM). For the same compound, the MIC50 (Bifidobacterium breve) was 1 µg/mL (≈ 0.69 µM), the MIC90 (Bifidobacterium breve) was 64 µg/mL (≈ 44.2 µM) and the MIC50 [4] was 1 µg/mL (≈ 0.69 µM). It also gave an MIC90 [4] of 64 µg/mL (≈ 44.2 µM), an MIC50 [5] of 1 µg/mL (≈ 0.69 µM) and an MIC90 [5] of 64 µg/mL (≈ 44.2 µM). For the same compound, the MIC50 (Peptoniphilus harei) was 0.5 µg/mL (≈ 0.345 µM), the MIC90 (Peptoniphilus harei) was 1 µg/mL (≈ 0.69 µM) and the MIC50 (Ruminococcus gnavus) was 0.5 µg/mL (≈ 0.345 µM). For the same compound, the MIC90 (Ruminococcus gnavus) was 1 µg/mL (≈ 0.69 µM), the MIC50 (Ruminococcus lactaris) was 0.5 µg/mL (≈ 0.345 µM) and the MIC90 (Ruminococcus lactaris) was 1 µg/mL (≈ 0.69 µM). For the same compound, the MIC50 (Blautia luti) was 0.5 µg/mL (≈ 0.345 µM) and the MIC90 (Blautia luti) was 1 µg/mL (≈ 0.69 µM).

Work on `CC(=O)Oc1ccccc1C(=O)Nc1ncc([N+](=O)[O-])s1` [NITAZOXANIDE] yielded an MIC50 [1] of 4 µg/mL (≈ 13 µM), an MIC90 [1] of 4 µg/mL (≈ 13 µM) and an MIC50 (Bacteroides caccae) of 2 µg/mL (≈ 6.51 µM). It also gave an MIC90 (Bacteroides caccae) of 4 µg/mL (≈ 13 µM), an MIC50 [2] of 4 µg/mL (≈ 13 µM) and an MIC90 [2] of 4 µg/mL (≈ 13 µM). The MIC50 [3] was 1 µg/mL (≈ 3.25 µM), the MIC90 [3] was 4 µg/mL (≈ 13 µM) and the MIC (Fusobacterium nucleatum) was 0.25 µg/mL (≈ 0.814 µM). It also gave an MIC50 (Fusobacterium nucleatum) of 0.25 µg/mL (≈ 0.814 µM), an MIC90 (Fusobacterium nucleatum) of 0.5 µg/mL (≈ 1.63 µM) and an MIC50 (Porphyromonas uenonis) of 0.5 µg/mL (≈ 1.63 µM). The MIC90 (Porphyromonas uenonis) was 1 µg/mL (≈ 3.25 µM), the MIC50 (Clostridium hathewayi) was 0.5 µg/mL (≈ 1.63 µM) and the MIC90 (Clostridium hathewayi) was 0.5 µg/mL (≈ 1.63 µM). For the same compound, the MIC (Flavonifractor plautii) was 0.25 µg/mL (≈ 0.814 µM), the MIC50 (Flavonifractor plautii) was 0.25 µg/mL (≈ 0.814 µM) and the MIC90 (Flavonifractor plautii) was 0.5 µg/mL (≈ 1.63 µM). The MIC50 (Clostridium perfringens) was 2 µg/mL (≈ 6.51 µM), the MIC90 (Clostridium perfringens) was 4 µg/mL (≈ 13 µM) and the MIC50 (Clostridium fallax) was 0.5 µg/mL (≈ 1.63 µM). It also gave an MIC90 (Clostridium fallax) of 4 µg/mL (≈ 13 µM), an MIC50 (Clostridium symbiosum) of 0.5 µg/mL (≈ 1.63 µM) and an MIC90 (Clostridium symbiosum) of 4 µg/mL (≈ 13 µM). For the same compound, the MIC50 (Bifidobacterium bifidum) was 2 µg/mL (≈ 6.51 µM), the MIC90 (Bifidobacterium bifidum) was 32 µg/mL (≈ 104 µM) and the MIC50 (Bifidobacterium breve) was 2 µg/mL (≈ 6.51 µM). For the same compound, the MIC90 (Bifidobacterium breve) was 32 µg/mL (≈ 104 µM), the MIC50 [4] was 2 µg/mL (≈ 6.51 µM) and the MIC90 [4] was 32 µg/mL (≈ 104 µM). The MIC50 [5] was 2 µg/mL (≈ 6.51 µM), the MIC90 [5] was 32 µg/mL (≈ 104 µM) and the MIC50 (Peptoniphilus harei) was 0.5 µg/mL (≈ 1.63 µM). The MIC90 (Peptoniphilus harei) was 1 µg/mL (≈ 3.25 µM), the MIC50 (Ruminococcus gnavus) was 0.5 µg/mL (≈ 1.63 µM) and the MIC90 (Ruminococcus gnavus) was 1 µg/mL (≈ 3.25 µM). It also gave an MIC50 (Ruminococcus lactaris) of 0.5 µg/mL (≈ 1.63 µM), an MIC90 (Ruminococcus lactaris) of 1 µg/mL (≈ 3.25 µM) and an MIC50 (Blautia luti) of 0.5 µg/mL (≈ 1.63 µM). The MIC90 (Blautia luti) was 1 µg/mL (≈ 3.25 µM).
